From ChEMBL document CHEMBL5584343, “Cerastecin Inhibition of the Lipooligosaccharide Transporter MsbA to Combat Acinetobacter baumannii: From Screening Impurity to In Vivo Efficacy” (J Med Chem, 2024)
In brackets after ≈: the same amount, converted by molar mass.

Key:
[1] = system: Acinetobacter baumannii; experiment: (§1) Antibacterial activity against Acinetobacter baumannii CLB21655 infected in female DBA mouse blood stream infection model assessed as fold change in colony forming units in spleen at 100 mg/kg, sc pre-infected with bacteria for 0.5 hrs followed by once daily compound administration and measured after 8 hrs relative to control; type: functional
[2] = system: Acinetobacter baumannii; experiment: as §1, with “10” for “100”, “thrice” for “once”; type: functional
[3] = system: Acinetobacter baumannii; experiment: (§2) Antibacterial activity against Acinetobacter baumannii CLB21655 infected in female DBA mouse lung infection model assessed as reduction in bacterial burden in lung at 300 mg/kg, sc pre-infected with bacteria for 2 hrs followed by thrice daily compound administration with 3 hrs interval and measured after 24 hrs (reference value: 9.7 log10CFU/g); type: functional
[4] = system: Acinetobacter baumannii; experiment: (§3) Antibacterial activity against Acinetobacter baumannii CLB21655 infected in female DBA mouse blood stream infection model assessed as reduction in bacterial burden in spleen at 300 mg/kg, sc pre-infected with bacteria for 0.5 hrs followed by thrice daily compound administration and measured after 8 hrs (reference value: 6.3 log10CFU/g); type: functional
[5] = Plasma protein binding in C57BL/6 mouse at 1000 to 100000 ng/ml by equilibrium dialysis based LC-MS/MS analysis; type: ADME, cell-free; conditions: dose 1000-100000 ng/ml, read-out: PPB (converted)
[6] = system: Acinetobacter baumannii; experiment: as §3, with “100” for “300”, “once” for “thrice”, “6.5” for “6.3”; type: functional
[7] = system: Acinetobacter baumannii; experiment: Antibacterial activity against Acinetobacter baumannii ATCC19606 incubated for 18 to 20 hrs in presence of 50% mouse serum by microbroth dilution method; type: functional; conditions: time 18-20 hrs
[8] = system: Acinetobacter baumannii; experiment: Antibacterial activity against Acinetobacter baumannii ATCC19606 assessed as bacterial growth inhibition incubated for 18 to 20 hrs by microbroth dilution method; type: functional; conditions: time 18-20 hrs
[9] = system: Acinetobacter baumannii; experiment: (§4) Antibacterial activity against Acinetobacter baumannii CLB21655 infected in female DBA mouse lung infection model assessed as fold change in colony forming units in lung at 300 mg/kg, sc pre-infected with bacteria for 2 hrs followed by thrice daily compound administration with 3 hrs interval and measured after 24 hrs relative to control; type: functional
[10] = system: Acinetobacter baumannii; experiment: as §4, with “once” for “thrice”, “administration” for “administration with 3 hrs interval”; type: functional
[11] = system: Acinetobacter baumannii; experiment: as §2, with “once” for “thrice”, “administration” for “administration with 3 hrs interval”; type: functional
[12] = Inhibition of wildtype Acinetobacter baumannii MsbA preincubated for 30 mins followed by ATP addition and measured after 1 hrs by Transcreener ADP2 F1 assay
[13] = system: Acinetobacter baumannii; experiment: as §3, with “200” for “300”, “once” for “thrice”, “6.5” for “6.3”; type: functional
[14] = system: Acinetobacter baumannii; experiment: as §1, with “200” for “100”; type: functional
[15] = Cytotoxicity against GFP fused human MT4 cells cultured under serum free condition for 24 hrs by CellTiter-Glo assay; type: toxicity, cell-based; conditions: GFP fused MT4 cells
[16] = system: Acinetobacter baumannii; experiment: as §3, with “once” for “thrice”, “6.5” for “6.3”; type: functional
[17] = system: Acinetobacter baumannii; experiment: Antibacterial activity against Acinetobacter baumannii ATCC19606 incubated for 18 to 20 hrs in presence of 1% of human serum by microbroth dilution method; type: functional; conditions: time 18-20 hrs
[18] = system: Acinetobacter baumannii; experiment: Selectivity ratio of MIC95 for antibacterial activity against Acinetobacter baumannii ATCC19606 in the presence of 1% human serum to MIC95 for antibacterial activity against Acinetobacter baumannii ATCC19606; type: functional
[19] = system: Acinetobacter baumannii; experiment: as §1, with “300” for “100”; type: functional
[20] = system: Acinetobacter baumannii; experiment: Antibacterial activity against Acinetobacter baumannii CLB21655 incubated for 18 to 20 hrs in presence of 50% mouse serum by microbroth dilution method; type: functional; conditions: time 18-20 hrs
[21] = system: Acinetobacter baumannii; experiment: Antibacterial activity against Acinetobacter baumannii CLB21655 incubated for 18 to 20 hrs in presence of 50% human serum by microbroth dilution method; type: functional; conditions: time 18-20 hrs
[22] = system: Acinetobacter baumannii; experiment: Antibacterial activity against Acinetobacter baumannii CLB21655 assessed as bacterial growth inhibition incubated for 18 to 20 hrs by microbroth dilution method; type: functional; conditions: time 18-20 hrs
[23] = system: Acinetobacter baumannii; experiment: Antibacterial activity against Acinetobacter baumannii CLB21655 incubated for 18 to 20 hrs in presence of 10% mouse serum by microbroth dilution method; type: functional; conditions: time 18-20 hrs
[24] = system: Acinetobacter baumannii; experiment: (§5) Antibacterial activity against Acinetobacter baumannii CLB21655 infected in female DBA mouse lung infection model assessed as reduction in bacterial burden in lung at 640 mg/kg, sc pre-infected with bacteria for 2 hrs followed by compound administration and measured after 24 hrs in presence of avibactam (reference value: 9.7 log10CFU/g); type: functional
[25] = system: Acinetobacter baumannii; experiment: (§6) Antibacterial activity against Acinetobacter baumannii CLB21655 infected in female DBA mouse lung infection model assessed as fold change in colony forming units in lung at 640 mg/kg, sc pre-infected with bacteria for 2 hrs followed by compound administration and measured after 24 hrs in presence of avibactam relative to control; type: functional
[26] = system: Acinetobacter baumannii; experiment: as §6, with “160” for “640”, “ceftazidime” for “avibactam”; type: functional
[27] = system: Acinetobacter baumannii; experiment: as §5, with “160” for “640”, “ceftazidime” for “avibactam”; type: functional
[28] = system: Acinetobacter baumannii; experiment: as §3, with “200” for “300”, “once” for “thrice”, “5.85” for “6.3”; type: functional
[29] = Lipophilicity, logD of compound at pH 7 by HPLC analysis; type: physicochemical; conditions: buffer
[30] = system: Acinetobacter baumannii; experiment: Antibacterial activity against wild type Acinetobacter baumannii; type: functional
[31] = system: Acinetobacter baumannii; experiment: Antibacterial activity against Acinetobacter baumannii clinic isolates; type: functional

Question: For O=C(CCCOc1ccc(NS(=O)(=O)c2cnn(-c3ccc(F)cc3)c2)c(C(=O)O)c1)Nc1ccc(NS(=O)(=O)c2cnn(-c3ccc(F)cc3)c2)c(C(=O)O)c1, which “fold change (FC)” value [1] is on record?
Answer: 0.63

Question: What about the “fold change (FC)” value [2] of the same compound?
Answer: 1.9

Question: And the Activity [3]?
Answer: 8.3 log10CFU/g

Question: And the Activity [4]?
Answer: 4.4 log10CFU/g

Question: And the fraction unbound [5]?
Answer: 0.004

Question: And the Activity [6]?
Answer: 5.9 log10CFU/g

Question: And the MIC95 [7]?
Answer: 50 µM

Question: What about the MIC95 [8] of the same compound?
Answer: 0.277 µM (≈ 0.228 µg/mL)

Question: What about the “fold change (FC)” value [9] of the same compound?
Answer: 1.4

Question: And the “fold change (FC)” value [10]?
Answer: 0.9

Question: What about the Activity [11] of the same compound?
Answer: 8.8 log10CFU/g

Question: What about the EC50 [12] of the same compound?
Answer: 50 nM

Question: What about the Activity [13] of the same compound?
Answer: 6.5 log10CFU/g

Question: And the “fold change (FC)” value [14]?
Answer: 0

Question: What about the EC50 at 24 h [15] of the same compound?
Answer: > 42 µM

Question: What about the Activity [16] of the same compound?
Answer: 6.2 log10CFU/g

Question: And the MIC95 [17]?
Answer: 2.03 µM

Question: And the Selectivity ratio [18]?
Answer: 7.3

Question: And the “fold change (FC)” value [19]?
Answer: 0.36

Question: What does the source list for O=C(O)c1cc(CN2CC(Oc3ccc(NS(=O)(=O)N4CCOC(c5ccc(F)cc5)C4)c(C(=O)O)c3)C2)ccc1NS(=O)(=O)CCCCc1ccc(Cl)cc1 (single isomer, unassigned)?
Answer: MIC [20]: 50 µM; MIC [21]: 12.5 µM; MIC [22]: 0.049 µM (≈ 0.0407 µg/mL); MIC [23]: 3.12 µM

Question: What does the source list for CC(C)(O/N=C(\C(=O)N[C@@H]1C(=O)N2C(C(=O)[O-])=C(C[n+]3ccccc3)CS[C@H]12)c1csc(N)n1)C(=O)O [CEFTAZIDIME]?
Answer: Activity [24]: 7.6 log10CFU/g; fold change (FC) [25]: 2.1

Question: Which MIC [20] does the source give for O=C(O)c1cc(CN2CC(Oc3ccc(NS(=O)(=O)c4cnn(-c5ccc(F)cc5)c4)c(C(=O)O)c3)C2)ccc1NS(=O)(=O)CCCCCc1ccc(Cl)cc1 here?
Answer: 25 µM

Question: And the MIC [21]?
Answer: 25 µM

Question: And the MIC [22]?
Answer: 0.024 µM (≈ 0.0198 µg/mL)

Question: And the MIC [23]?
Answer: 3.12 µM

Question: What does the source list for O=C(O)c1cc(CN2CC(Oc3ccc(NS(=O)(=O)N4CCOC(c5ccc(F)cc5)C4)c(C(=O)O)c3)C2)ccc1NS(=O)(=O)CCCc1ccc(F)cc1 (racemic)?
Answer: MIC [20]: > 100 µM; MIC [21]: 12.5 µM; MIC [22]: 0.098 µM (≈ 0.0785 µg/mL); MIC [23]: 6.25 µM

Question: What does the source list for NC(=O)[C@@H]1CC[C@@H]2CN1C(=O)N2OS(=O)(=O)O [AVIBACTAM]?
Answer: fold change (FC) [26]: 2.1; Activity [27]: 7.6 log10CFU/g

Question: Which fraction unbound [5] does the source give for CCCCc1ccc(S(=O)(=O)Nc2ccc(NC(=O)CCC(=O)Nc3ccc(NS(=O)(=O)c4ccc(CCCC)cc4)c(C(=O)O)c3)cc2C(=O)O)cc1 here?
Answer: < 0.001

Question: And the MIC95 [8]?
Answer: 0.057 µM (≈ 0.0444 µg/mL)

Question: And the EC50 [12]?
Answer: 49 nM

Question: What about the Activity [28] of the same compound?
Answer: 6.04 log10CFU/g

Question: And the EC50 at 24 h [15]?
Answer: > 42 µM

Question: What about the logD [29] of the same compound?
Answer: 2.1

Question: And the MIC95 [17]?
Answer: 11.5 µM

Question: What about the Selectivity ratio [18] of the same compound?
Answer: 202

Question: With CN1C(=O)[C@H](CCCCN)NC(=O)[C@H](CCCN)NCc2cccnc2Sc2cccc(-c3ccc(C(=O)O)cc3)c2CNC(=O)[C@@H]1Cc1c[nH]c2ccccc12 [ZOSURABALPIN] as the compound, how does the MIC [30] read?
Answer: 0.3 µM (≈ 0.237 µg/mL)

Question: What about the MIC [31] of the same compound?
Answer: 0.12 µg/mL (≈ 0.152 µM)
